Test results as given in patent US20190338290A1, “TREATMENT OF SARCOMA” (MEMORIAL SLOAN KETTERING CANCER CENTER, priority 2017, published 2019).

Tested on: SS18-SSX / KDM2B co-localization
Experiment: Proximity ligation assay (PLA) of SS18-SSX and KDM2B
Format: cell-based, human
Settings: HS-SY-II cells, SS18-SSX knockdown
Experimental: Indicated synovial sarcoma cell lines were seeded at 3×10^4 cells/well in culture treated 8-well chamber slides and treated as previously described (Laporte et al., 2016). Primary antibodies for PLA were used at 1/1000 dilution: SS18 (Santa-Cruz Biotechnologies, sc-28698), KDM2B (Abnova, H00084678-M09), HA (Santa-Cruz Biotechnologies, sc-805). Proximity ligation was performed utilizing the Duolink® In Situ Red Starter Kit Mouse/Rabbit (Sigma-Aldrich, DUP92101-1KT) according to the manufacturer's protocol. Fluorescence was detected using a Zeiss Axioplan2 microscope at 40×. Images were quantified in triplicate using ImageJ software (NIH) as foci per nucleus, defined as the number of interaction points counted per nucleus. For PLA analysis upon SS18-SSX knockdown, duplex oligo (sense, […]; antisense, […]) SS18-SSX siRNAs were designed to target the SSX portion of SS18-SSX using the Integrated. DNA Technologies RNA interference (RNAi) design tool, and synthesized by Integrated DNA Technologies (IDT) as previously described (Lubieniecka et al., 2008). HS-SY-II cells were seeded in 6-well plates. At 60% confluence, cells were transfected with 50 pmol siSS18-SSX and 9 μL Lipofectamine RNAiMAX transfection reagent (Invitrogen) in Opti-MEM serum free media (Life Technologies). […]

SSX targeting siRNA: duplex oligo siRNA (sense CAAGAAGCCAGCAGAGGAATT; antisense UUCCUCUGCUGGCUUCUUGTT) designed to target the SSX portion of SS18-SSX (chemistry not given here)
PLA signal (SS18 and KDM2B antibodies): abolished
